In ChEMBL document CHEMBL1201862, “PubChem BioAssay data set” (2004):
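Cultured in 96-well plates, cells were exposed to test compound for 48 hours across five concentrations. GI50 marks 50% less growth.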 Active and inactive are the calls of the source. Cut-off read from the data, not from the text of the source: active = GI50 up to about 1.1 µM and inactive = higher.

What was measured:
Test in all cases: growth of human tumour cells (NCI), 48 h
[1] = system: CAKI-1
[2] = system: COLO 205
[3] = system: EKVX
[4] = system: HL-60
[5] = system: HOP-92
[6] = system: HT-29
[7] = system: IGROV-1
[8] = system: K562
[9] = system: KM12
[10] = system: OVCAR-4
[11] = system: SF-268
[12] = system: SK-MEL-28
[13] = system: SN12C
[14] = system: SNB-19
[15] = system: SNB-78
[16] = system: MCF7
[17] = system: PC-3
[18] = system: T47D

Measured: GI50

COc1nc(NC2OCC(OC(C)=O)C(OC(C)=O)C2OC(C)=O)c(/N=C(\C)C(C)=O)c(=O)n1C (stereo not drawn)
inactive: [1] > 100 µM | [2] > 100 µM | [3] > 100 µM | [4] > 100 µM | [5] > 100 µM | [6] > 100 µM | [7] > 100 µM | [8] > 100 µM | [9] > 100 µM | [10] > 100 µM | [11] > 100 µM | [12] > 100 µM | [13] > 100 µM | [14] > 100 µM | [15] > 100 µM

COC(=O)C1CCC(N2C(=O)CCC2C(=O)OC)=N1 (stereo not drawn)
inactive: [1] > 100 µM | [2] > 100 µM | [3] > 100 µM | [4] > 100 µM | [5] > 100 µM | [6] > 100 µM | [7] > 100 µM | [8] > 100 µM | [9] > 100 µM | [10] > 100 µM | [11] > 100 µM | [12] > 100 µM | [13] > 100 µM | [14] > 100 µM | [15] > 100 µM

CC1(C)C2=CCCC(=O)[C@@]2(C)CC[C@@H]1O
inactive: [1] > 100 µM | [2] > 100 µM | [3] > 100 µM | [4] > 100 µM | [5] > 100 µM | [6] > 100 µM | [7] > 100 µM | [8] > 100 µM | [9] > 100 µM | [10] > 100 µM | [11] > 100 µM | [12] > 100 µM | [13] > 100 µM | [14] > 100 µM | [15] > 100 µM

CCOC(=O)C(=Cc1ccc(Oc2ccccc2)cc1)C(=O)OCC
inactive: [1] 14.1 µM | [2] 4.06 µM | [3] 15.4 µM | [4] 1.73 µM | [5] 4.03 µM | [6] 3.18 µM | [7] 6.81 µM | [8] 1.87 µM | [9] 5.98 µM | [16] 4.09 µM | [10] 7.59 µM | [17] 2.16 µM | [11] 3.32 µM | [12] 3.56 µM | [13] 2.27 µM | [14] 5.73 µM | [15] 5.7 µM | [18] 5.85 µM

O=C(N/C(=C\c1ccccc1Cl)c1nc2ccccc2[nH]1)c1ccccc1
inactive: [1] 29.5 µM | [2] 34.6 µM | [3] 21.3 µM | [4] 25.7 µM | [5] 10.3 µM | [6] 24.3 µM | [7] 25.1 µM | [8] 24.5 µM | [9] 32.5 µM | [10] 29 µM | [11] 32.7 µM | [12] 40.9 µM | [13] 16.7 µM | [14] 29.3 µM | [15] 45.6 µM

CC(C)(C)NNC(=O)/C(=C/c1ccc(Oc2ccc(Cl)c(Cl)c2)cc1)NC(=O)c1ccccc1
inactive: [1] > 100 µM | [2] 16.2 µM | [3] > 100 µM | [4] 40.5 µM | [5] > 100 µM | [6] > 100 µM | [7] > 100 µM | [8] 42.5 µM | [9] > 100 µM | [10] > 100 µM | [11] > 100 µM | [12] > 100 µM | [13] > 100 µM | [14] > 100 µM | [15] > 100 µM

O=C(NO)c1ccc(O)c(O)c1
inactive: [1] > 100 µM | [2] > 100 µM | [3] > 100 µM | [4] 9.77 µM | [5] > 100 µM | [6] > 100 µM | [7] > 100 µM | [8] 26.5 µM | [9] > 100 µM | [10] > 100 µM | [11] > 100 µM | [12] > 100 µM | [13] > 100 µM | [14] > 100 µM | [15] > 100 µM
